In patent US10781214B2, “Kinase inhibitor against wild-type and mutant EGFR” (PRECEDO PHARMACEUTICALS CO., LTD, priority 2015, dated 2020):

What was measured:
Type in all cases: cell-based
mouse pro-B cell BaF3 = assay: Cell growth, Cell Titer-Glo, 72 h: BaF3; conditions: BaF3 cells, 72 h, read-out: GI50
Excerpt: (§1) Compounds of the present invention were further evaluated for their selectivity in inhibiting proliferation of cancer cells by testing effects of the novel kinase inhibitors on proliferation of cancer cells. In the examples the following cells were selected: human non-small cell lung cancer cell NCI-H1975 (expressing EGFR L858R/T790M double-mutant gene), human-derived non-small cell lung cancer cell PC-9 (expressing EGFR delE746_A750 mutant gene), human-derived non-small cell lung cancer cell HCC827 (expressing EGFR delE746_A750 mutant gene), human lung adenocarcinoma cell HCC4006 (expressing EGFR delE746_A750 mutant gene), human non-small cell lung cancer cell NCI-H3255 (expressing EGFR L858R mutant gene), human skin squamous carcinoma cell A431 (expressing wild-type EGFR gene), human non-small cell lung cancer cell A549 (expressing wild-type EGFR gene), human non-small cell lung cancer cell NCI-H460 (expressing wild-type EGFR gene), human non-small cell lung cancer cell NCI-H2122 (expressing wild-type EGFR gene), Chinese hamster ovary (CHO) cell (Cricetulus griseus, hamster, Chinese, ovary), Chinese hamster lung cell (CHL), mouse pro-B cell BaF3. The cells above were all purchased from (USA).
(§2) The cells were incubated for 72 h, and then the number of viable cells was determined via quantitative determination with a microplate reader by using Cell Titer-Glo® (Promega, the USA) Luminescent Cell Viability Assay kit.

[1] = tested on: A549 (expressing wild-type EGFR gene); assay: Cancer cell growth, Cell Titer-Glo, 72 h: A549; conditions: Homo sapiens; A549 cells, 72 h; read-out: GI50
Excerpt: as §1, §2

[2] = tested on: NCI-H3255 (expressing EGFR L858R mutant gene); assay: Cancer cell growth, Cell Titer-Glo, 72 h: NCI-H3255; conditions: Homo sapiens; NCI-H3255 cells, 72 h; read-out: GI50
Excerpt: as §1, §2

[3] = tested on: NCI-H1975 (expressing EGFR L858R/T790M double-mutant gene); assay: Cancer cell growth, Cell Titer-Glo, 72 h: NCI-H1975; conditions: Homo sapiens; NCI-H1975 cells, 72 h; read-out: GI50
Excerpt: as §1, §2

[4] = tested on: HCC827 (expressing EGFR delE746_A750 mutant gene); assay: Cancer cell growth, Cell Titer-Glo, 72 h: HCC827; conditions: Homo sapiens; HCC827 cells, 72 h; read-out: GI50
Excerpt: as §1, §2

[5] = tested on: BaF3-FL-EGFR-T790M-L858R (stably expressing EGFR T790M/L858R mutant kinase); assay: Cell growth, Cell Titer-Glo, 72 h: BaF3-FL-EGFR-T790M-L858R; conditions: Mus musculus, BaF3-FL-EGFR-T790M-L858R cells
Excerpt: (§3) In addition, this example further uses: mouse BaF3-TEL-EGFR (stably expressing wild-type EGFR kinase), mouse BaF3-TEL-EGFR-L858R (stably expressing EGFR L858R mutant kinase), mouse BaF3-TEL-EGFR-T790M (stably expressing EGFR T790M mutant kinase), mouse BaF3-FL-EGFR-DeI19 (stably expressing EGFR delE746_A750 mutant kinase), mouse BaF3-FL-EGFR-T790M-L858R (stably expressing EGFR T790M/L858R mutant kinase), mouse BaF3/P210 (stably expressing bcr/abl˜(P210) mutant kinase), mouse BaF3-TEL-ABL-T315I (stably expressing ABLT315I mutant kinase), mouse BaF3-FLT3-ITD (stably expressing FLT3/ITD mutant kinase), mouse BaF3-TEL-JAK2 (stably expressing JAK2 kinase), mouse BaF3-TEL-JAK3 (stably expressing JAK3 kinase), mouse BaF3-TPR-MET (stably expressing MET kinase), mouse BaF3-TEL-BLK (stably expressing BLK kinase), mouse BaF3-TEL-ABL (stably expressing ABL kinase), mouse BaF3-TEL-BMX (stably expressing BMX kinase), mouse BaF3-TEL-ALK (stably expressing ALK kinase). The above cell lines were all constructed by our laboratory according to the following method: the kinase region sequences of human […], EGFR L858R, EGFR T790M, EGFR delE746_A750, EGFR T790M/L858R, bcr/abl˜(P210), ABL T315I, FLT3/ITD, JAK2, JAK3, MET, BLK, ABL, BMX, ALK were amplified respectively by PCR, inserted respectively into MSCV-Puro vectors harboring N-terminal fragment and/or NPM fragment and/or TPR fragment (Clontech), then the vectors were stably transfected into mouse BaF3 cells by retrovirus methods and growth factor IL-3 was removed, eventually obtaining cell lines that are transferred protein (EGFR, EGFR L858R, EGFR T790M, EGFR delE746_A750, EGFR T790M/L858R, bcr/abl˜(P210), ABL T315I, FLT3/ITD, JAK2, JAK3, MET, BLK, ABL, BMX, ALK)-dependent.
as §2

[6] = tested on: PC-9 (expressing EGFR delE746_A750 mutant gene); assay: Cancer cell growth, Cell Titer-Glo, 72 h: PC-9; conditions: Homo sapiens; PC-9 cells, 72 h; read-out: GI50
Excerpt: as §1, §2

[7] = tested on: BaF3-TEL-EGFR (stably expressing wild-type EGFR kinase); assay: Cell growth, Cell Titer-Glo, 72 h: BaF3-TEL-EGFR; conditions: Mus musculus, BaF3-TEL-EGFR cells, read-out: GI50
Excerpt: as §3, §2

[8] = tested on: A431 (expressing wild-type EGFR gene); assay: Cancer cell growth, Cell Titer-Glo, 72 h: A431; conditions: Homo sapiens, A-431; A431 cells, 72 h; read-out: GI50
Excerpt: as §1, §2

SMILES	GI50 (mouse pro-B cell BaF3) [µM]	GI50 [1] [µM]	GI50 [2] [nM]	GI50 [3] [nM]	GI50 [4] [nM]	GI50 [5] [nM]	GI50 [6] [nM]	GI50 [7] [µM]	GI50 [8] [µM]
C=CC(=O)N1CCC[C@@H](n2nc(-c3ccc(OCc4cccc(F)c4)c(OC)c3)c3c(N)ncnc32)C1 [Compound 8]	> 10	2.7	56	350	84	43	25	–	–
C=CC(=O)N1CCC[C@@H](n2nc(-c3ccc(OCc4cccc(F)c4)c(C)c3)c3c(N)ncnc32)C1 [Compound 14, (R)-1-(3-(4-amino-3-(3-methyl-4-((3-fluorobenzyl)oxy)phenyl)-1H-pyrazolo[3,4-d]pyrimidin-1-yl)piperidin-1-yl)prop-2-en-1-one]	2.5	–	9	38	–	< 0.3	16	1.4	–
C=CC(=O)N1CCC[C@@H](n2nc(-c3ccc(OCc4cccc(F)c4)c(C#N)c3)c3c(N)ncnc32)C1 [Compound 16, (R)-1-(3-(4-amino-3-(3-cyano-4-((3-fluorobenzyl)oxy)phenyl)-1H-pyrazolo[3,4-d]pyrimidin-1-yl)piperidin-1-yl)prop-2-en-1-one]	> 10	–	28	–	–	52	51	> 10	–
C=CC(=O)N1CCC[C@@H](n2nc(-c3ccc(OCc4ccccc4F)c(Cl)c3)c3c(N)ncnc32)C1 [Compound 18, (R)-1-(3-(4-amino-3-(3-chloro-4-((2-fluorobenzyl)oxy)phenyl)-1H-pyrazolo[3,4-d]pyrimidin-1-yl)piperidin-1-yl)prop-2-en-1-one]	8.5	–	20	–	–	1	14	4.2	–
C=CC(=O)N1CCC[C@@H](n2nc(-c3ccc(OCc4cccc(F)c4)nc3)c3c(N)ncnc32)C1 [Compound 19, (R)-1-(3-(4-amino-3-(6-((3-fluorobenzyl)oxy)pyridin-3-yl)-1H-pyrazolo[3,4-d]pyrimidin-1-yl)piperidin-1-yl)prop-2-en-1-one]	> 10	–	> 10000	> 10000	–	–	> 10000	–	–
C=CC(=O)N1CCC[C@@H](n2nc(-c3ccc(CN4CCN(C)CC4)cc3)c3c(N)ncnc32)C1 [Compound 20]	> 10	> 10	4900	> 10000	–	> 10000	7000	–	–
C=CC(=O)N1CCC[C@@H](n2nc(-c3ccc(OCc4cc(F)ccc4F)c(Cl)c3)c3c(N)ncnc32)C1 [Compound 23, (R)-1-(3-(4-amino-3-(3-chloro-4-((2,5-difluorobenzyl)oxy)phenyl)-1H-pyrazolo[3,4-d]pyrimidin-1-yl)piperidin-1-yl)prop-2-en-1-one]	4.3	3.8	< 0.3	7	–	< 0.3	7	–	–

Now from value to compound:

GI50 (mouse pro-B cell BaF3) [µM]	GI50 [1] [µM]	GI50 [2] [nM]	GI50 [3] [nM]	GI50 [4] [nM]	GI50 [5] [nM]	GI50 [6] [nM]	GI50 [7] [µM]	GI50 [8] [µM]	SMILES
1.9	> 10	< 0.3	1600	–	< 0.3	6	–	–	C=CC(=O)N1CCC[C@@H](n2nc(-c3ccc(OCc4cccc(F)c4)cc3F)c3c(N)ncnc32)C1 [Compound 24, (R)-1-(3-(4-amino-3-(2-fluoro-4-((3-fluorobenzyl)oxy)phenyl)-1H-pyrazolo[3,4-d]pyrimidin-1-yl)piperidin-1-yl)prop-2-en-1-one]
9.8	> 10	< 0.3	8	–	2	10	2.8	> 10	C=CC(=O)N1CCC[C@@H](n2nc(-c3ccc(OCc4nccs4)c(Cl)c3)c3c(N)ncnc32)C1 [Compound 28, (R)-1-(3-(4-amino-3-(3-chloro-4-(thiazol-2-ylmethoxy)phenyl)-1H-pyrazolo[3,4-d]pyrimidin-1-yl)piperidin-1-yl)prop-2-en-1-one]
> 10	> 10	36	3	–	2	38	3.3	> 10	C=CC(=O)N1CCC[C@@H](n2nc(-c3ccc(OCc4ccc(C)nc4)c(Cl)c3)c3c(N)ncnc32)C1 [Compound 30, (R)-1-(3-(4-amino-3-(3-chloro-4-((6-methylpyridin-3-yl)methoxy)phenyl)-1H-pyrazolo[3,4-d]pyrimidin-1-yl)piperidin-1-yl)prop-2-en-1-one]
> 10	> 10	43	95	–	53	9	2.2	> 10	C=CC(=O)N1CCC[C@@H](n2nc(-c3ccc(F)c(Cl)c3)c3c(N)ncnc32)C1 [Compound 31, (R)-1-(3-(4-amino-3-(3-chloro-4-flurophenyl)-1H-pyrazolo[3,4-d]pyrimidin-1-yl)piperidin-1-yl)prop-2-en-1-one]
4.5	> 10	330	710	–	130	170	0.69	3.9	CN(C)C/C=C/C(=O)N1CCC[C@@H](n2nc(-c3ccc(F)c(Cl)c3)c3c(N)ncnc32)C1 [Compound 32, (R)-1-(3-(4-amino-3-(3-chloro-4-flurophenyl)-1H-pyrazolo[3,4-d]pyrimidin-1-yl)piperidin-1-yl)-4-(dimethylamino)but-2-en-1-one]
> 10	3.1	46	56	–	< 0.3	180	3.6	> 10	C=CC(=O)N1CCC[C@@H](n2nc(-c3ccc(OCc4ccccn4)c(C(F)(F)F)c3)c3c(N)ncnc32)C1 [Compound 35, (R)-1-(3-(4-amino-3-(3-trifluoromethyl-4-(pyridin-2-ylmethoxy)phenyl)-1H-pyrazolo[3,4-d]pyrimidin-1-yl)piperidin-1-yl)prop-2-en-1-one]
> 10	3.4	44	< 0.3	–	< 0.3	24	3.5	> 10	C=CC(=O)N1CCC[C@@H](n2nc(-c3ccc(OCc4ncc(C)c(OC)c4C)c(Cl)c3)c3c(N)ncnc32)C1 [Compound 36, (R)-1-(3-(4-amino-3-(3-chloro-4-((4-methoxy-3,5-dimethylpyridin-2-yl)methoxy)phenyl)-1H-pyrazolo[3,4-d]pyrimidin-1-yl)piperidin-1-yl)prop-2-en-1-one]
4.6	2.8	3800	5100	–	–	1700	6.6	8.7	C=CC(=O)Nc1cc(Cn2nc(-c3ccc(F)c(Cl)c3)c3c(N)ncnc32)ccc1F [Compound 38]
